Laboratory results from publication PMC3652819, “A Cocoa Peptide Protects Caenorhabditis elegans from Oxidative Stress and β-Amyloid Peptide Toxicity” (PLoS ONE, 2013).
Residues, ends and D or L forms follow the SMILES beside them. No end group written: not given here. *: point of attachment. Cbz = O=C(OCc1ccccc1)*

How the values were obtained:
[1] = tested on: C. elegans strain CL4176 (Aβ1–42); test: body paralysis assay in transgenic C. elegans CL4176 expressing human Aβ1-42; format: in vivo, Caenorhabditis elegans; conditions: for Mid Paralysis (h), time when 50% of worms were paralyzed / % of worms non paralyzed at onset of paralysis / Onset Paralysis, time: peptides 1 µg/mL, ZPP 1 µM, “Barquillo” 10 µL/mL, fractions 10 µL/mL; for Mid Paralysis (h), time when 50% of worms were paralyzed: NGM 47 h; for % of worms non paralyzed at onset of paralysis: at the onset time, NGM 85.8%; for Onset Paralysis, time: time after Aβ42 induction, NGM 41 h; for effect on body paralysis (in words): compared with NGM controls
Description: Mutant strain GR1321 (tph-1(mg280)) was used in body fat reduction experiments. All the strains were obtained from the Caenorhabditis Genetics Center (University of Minnesota). Caenorhabditis elegans N2 and tph-1 were routinely propagated on Nematode Growth Medium (NGM) plates with Escherichia coli strain OP50 as a food source at 20°C, while CL4176 was maintained at 16°C. Worms were synchronized by isolating eggs from gravid adults at 20°C (N2 and tph-1) or 16°C (CL4176), and eggs were hatched overnight in NGM plates. In the experiments, the worms were fed with the different compounds from egg through to adult stages, and transferred to new plates every two days. […] ZPP (1 µM) was used as an internal positive control. Transgene expression was induced by up-shifting the temperature from 16°C to 25°C, starting 24 h after egg lying and maintained for 24 h. Then worms were incubated at 20°C until all the worms in the experiment became paralyzed. […] Paralysis in induced worms was compared with non-induced worms (maintained at 16°C until the end of the paralysis assay). Experiments were carried out in triplicate.

[2] = biological target: T1, prolyl endopeptidase (PEP) (Elizabethkingia meningoseptica, UniProt P27028); test: biochemical
T1 construct: purchased Seikagaku Corporation, Tokyo, Japan
T1 sequence (P27028 21-705): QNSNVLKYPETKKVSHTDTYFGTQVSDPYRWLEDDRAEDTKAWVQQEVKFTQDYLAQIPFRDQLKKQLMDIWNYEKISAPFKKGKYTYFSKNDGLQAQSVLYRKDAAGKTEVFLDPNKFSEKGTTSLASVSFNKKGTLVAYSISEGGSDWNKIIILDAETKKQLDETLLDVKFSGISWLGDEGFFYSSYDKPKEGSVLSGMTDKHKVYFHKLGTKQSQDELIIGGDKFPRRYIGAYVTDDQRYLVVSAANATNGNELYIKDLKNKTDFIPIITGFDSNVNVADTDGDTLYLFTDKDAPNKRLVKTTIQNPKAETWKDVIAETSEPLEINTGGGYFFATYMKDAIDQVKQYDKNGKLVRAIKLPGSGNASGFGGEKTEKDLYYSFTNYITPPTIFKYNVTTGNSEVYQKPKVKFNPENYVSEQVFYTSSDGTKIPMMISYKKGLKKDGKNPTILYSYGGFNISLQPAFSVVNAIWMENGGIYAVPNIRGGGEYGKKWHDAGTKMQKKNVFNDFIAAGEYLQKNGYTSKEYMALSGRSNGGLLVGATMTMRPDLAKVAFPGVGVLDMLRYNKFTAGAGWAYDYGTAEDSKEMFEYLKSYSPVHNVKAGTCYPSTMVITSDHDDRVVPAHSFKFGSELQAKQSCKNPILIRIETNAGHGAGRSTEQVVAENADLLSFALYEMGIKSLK
Description: Prolyl endopeptidase (PEP) activity was determined using a previously described method. Reaction was performed by addition of 0.1 U/ml of PEP (Seikagaku Corporation, Tokyo, Japan) to a 100 mM phosphate buffer pH 7 containing 2 mM of Z-Gly-Pro-p-nitroaniline (Sigma, Madrid, Spain). Samples were incubated for 20 min at 30°C and then the reaction was stopped by adding a volume of 10.5% Triton X-100 in 1 M sodium acetate buffer pH 4. The amount of ρ-nitroaniline released was quantified by spectrophotometry at 410 nm. The inhibitory activity of PEP was determined by adding 100 µl of each sample obtained during the purification process to the enzymatic reaction. Z-Prolyl-Prolinal (ZPP) (0.000426 ppm, Biomol, Plymouth Meeting, USA) was used as positive control of inhibition.

[3] = tested on: C. elegans wild-type strain N2; test: survival of wild-type C. elegans N2 after H2O2-induced oxidative stress; format: in vivo, Caenorhabditis elegans; conditions: compared with NGM
Description: Experiments of oxidative stress, body fat reduction and microarrays were carried out with the wild-type strain N2 (Bristol). Paralysis assays were performed with the transgenic strain CL4176 (smg-1^ts [pAF29(myo-3/Aβ1–42/let UTR)+pRF4(rol-6(su10069))]). Paralysis is induced in strain CL4176 by expression of a muscle-specific Aβ1–42, which depends on up-shifting temperature from 16 to 25°C [21], [22]. Mutant strain GR1321 (tph-1(mg280)) was used in body fat reduction experiments. All the strains were obtained from the Caenorhabditis Genetics Center (University of Minnesota).
Caenorhabditis elegans N2 and tph-1 were routinely propagated on Nematode Growth Medium (NGM) plates with Escherichia coli strain OP50 as a food source at 20°C, while CL4176 was maintained at 16°C. Worms were synchronized by isolating eggs from gravid adults at 20°C (N2 and tph-1) or 16°C (CL4176), and eggs were hatched overnight in NGM plates. In the experiments, the worms were fed with the different compounds from egg through to adult stages, and transferred to new plates every two days. […]
Viability of C. elegans was assessed after oxidative stress and differences between nematodes cultured in control and treatment conditions were evaluated by means of one-way analysis of variance (ANOVA) using Statgraphics plus (version 5.1) software (Manugistics, Rockville, MD).

[4] = tested on: C. elegans strain CL4176 (Aβ1–42); conditions: ref [36], [37]; cited from earlier work
Description: (§1) This could be explained by the release of bioactive peptides from the protein fraction of the by-product.

[5] = tested on: Aβ42; conditions: C. elegans; ref [36], [37]; cited from earlier work
Description: as §1

Row | Molecule | Mid Paralysis (h), time when 50% of worms were paralyzed [1] [h] | % of worms non paralyzed at onset of paralysis [1] [%] | Onset Paralysis, time [1] [h] | IC50 [2] [µM] | effect on worm survival after oxidative stress (in words) [3] | effect on body paralysis (in words) [1] | other results
1 | O=C[C@@H]1CCCN1C(=O)[C@@H]1CCCN1C(=O)OCc1ccccc1 [ZPP, Z-Prolyl-Prolinal, reference compound] (Cbz-Pro-Pro-aldehyde) | >49 | 96.7 | 41 | – | – | – | –
2 | DNYDNSAGKWWVT [13L, DNYDNSAGKWWVT] | – | – | – | 122 | – | – | –
3 | TDGVKGEPGPNTL [13R, synthesized peptide from the 21 kDa seed protein of Theobroma cacao] | 49 | 83.4 | 41 | – | did not produce a significant effect on worm survival rates | ability to ameliorate Aβ-induced paralysis | inhibitory activity (IC50) against PEP enzyme ([2]; synthetic peptides, 0.1 U/ml PEP, 2 mM Z-Gly-Pro-p-nitroaniline, pH 7, 20 min at 30°C, 410 nm): > 1480 µg/mL
4 | COC(=O)[C@H]1[C@H]2C[C@@H]3c4[nH]c5cc(OC)ccc5c4CCN3C[C@H]2C[C@@H](OC(=O)c2cc(OC)c(OC)c(OC)c2)[C@@H]1OC [reserpine] | – | – | – | – | – | – | effect on paralysis (in words) [4]: effect on delaying paralysis; effect on Aβ peptide expression levels (in words) [5]: no effects were observed in Aβ peptide expression levels
5 | NYDNSAGKW [9L, NYDNSAGKW] | – | – | – | 484 | – | – | –
6 | GVKGEPGPNTL [11R, GVKGEPGPNTL] | 49 | 89.9 | 41 | – | significant protection upon oxidative stress | ability to ameliorate Aβ-induced paralysis | –
